Measured values as given in patent US5182276A, “Nootropic agent” (Santen Pharmaceutical Co., Ltd., priority 1989, dated 1993).
Counter-ions that a name gives are not always drawn.

How the values were obtained:
[1] = Water Maze-Learning Test after cerebral ischemia; format: in vivo, male SHR's (rat); settings: for Swimming Time, 3rd Session: **: P < 0.01 vs. Pathema Control (114.9 ± 16.93); for Swimming Time, 2nd Session: **: P < 0.01 vs. Pathema Control (130.0 ± 17.13); for Swimming Time, 1st Session: **: P < 0.01 vs. Pathema Control (167.5 ± 9.59)
Experimental: (§1) 25-Week-old male SHR's were fixed on the back thereof under anesthetization with 1.5% halothane anesthetic (70% N,O, 30% O2) and the neck thereof was subjected to a median incision. The cerebral ischemia was caused by immediately ligating the both common carotid arteries with,a silk fiber after a vinyl tube was attached to the artery and just before the recovery from the anesthetic state. 3.5 Hours after the ligation, the silk fiber was cut to again initiate the blood circulation. In the test, the compound to be tested was suspended in a 0.5% aqueous solution of methyl cellulose and was initially administered, through oral route, to the animals to be tested 30 minutes before the ligation of the common artery and thereafter it was continuously administered every day over 16 days through oral route provided that the compound was not administered during the behavioral pharmacologic tests of the animals and was administered after completion of the tests.
This water maze-learning test was initiated on 7th day after the cerebral ischemia condition was formed. A cylindrical water tank having a diameter of 1.2 m was filled with black water and the temperature thereof was maintained at 20±1° C. A platform which was submerged in the water to a depth of 2 cm and could not be externally seen through the water (hereinafter referred to as "platform") was placed at the central point existing between the center of the water tank and the wall thereof.
The water maze-learning test was performed once a day (one session) which was continuously performed over three days (three sessions). In the first session (1st day), the animal was allowed to freely swim in the water tank which was free of platforms, then a platform was positioned in the tank and the animal was allowed to learn the presence of the platform of refuge by placing the animal thereon for 30 seconds. The animal was released through four predetermined points on the wall of the water tank over four times and the total time (swimming time (sec)) required until the animal got on the platform over four trials was determined. After the four trials, the animal was again allowed to stand on the platform for […] and thus the first session was completed. In this respect, the maximum total time required over four trials was determined to be 180 seconds. […] The 2nd and 3rd sessions were performed under the same conditions used in the first session except that the test animal was not allowed to freely swim in the water tank prior to the initiation of the test. The spatial positions of the water tank and the platform in the laboratory were not changed at all during the water maze-learning test term.

Acute toxicity, oral = settings: rat, in vivo, rats
From the text: The acute toxicity thereof was investigated by orally administering the compounds of Formula (I) to rats and they were confirmed to be highly safe.
Compound A was orally administered to rats to determine the acute toxicity thereof.

[2] = Test of Hypoxia-Inhibiting Effect (survival time under nitrogen gas); format: in vivo, ICR mice; settings: 100 mg/kg oral
Experimental: In this test, groups (9 to 10 mice each) of ICR mice were employed. The compound to be tested was suspended in a 0.5% aqueous methyl cellulose solution and was orally administered. 60 Minutes after the administration,each mouse was placed in a transparent container (volume 500m μ) having an exhaust hole and N, gas was supplied to the container at a rate of 5μ/min. The time (survival time in sec.) ,elapsed from the initiation of the nitrogen gas supply until the cessation of breathing of each mouse was determined. As the compounds to be tested, there was used (+)-3,4-dihydro-2-(5-methoxy-2- (3-(N-methyl-N-[2-[(3,4]propoxy]phenyl]-4-methyl-3-oxo-2H-1,4-benzothiazine fumarate (hereinafter referred to as "Compound A") which is a representative compound of the present invention. The results obtained are listed in the following Table 1.

[3] = system: cerebral ischemia / energy metabolic substances in the brain; assay: Test of Cerebral Energy Metabolism (bilateral common carotid artery ligation, SHR); format: in vivo, male SHR's (rat); settings: for Hippocampus E.C. (energy charge): **: P < 0.01 vs. Pathema Control (0.628 ± 0.026); for Cerebral Cortex E.C. (energy charge): **: P < 0.01 vs. Pathema Control (0.631 ± 0.0243); for Striatum E.C. (energy charge): **: P < 0.01 vs. Pathema Control (0.679 ± 0.032)
Experimental: 24-Week-old male SHR's were fixed on the back thereof under with 1.5% halothane anesthetic (70% N,O, 30% O2) and the neck thereof was subjected to a median incision. The cerebral ischemia was caused by immediately ligating bilateral common carotid artery with a silk fiber just before the recovery from the anesthetic state. 3.5 Hours after the ligation, the animals were sacrificed by irradiating them with microwaves (5 KW, 1.5 second). The brain tissues were collected and divided into cerebral cortex, hippocampus and striatum. The brain tissues were homogenized in a 0.6N aqueous perchloric acid solution and centrifuged at 3,000 rpm for 20 minutes. The resulting supernatant was used as the sample for detecting the energy metabolic substances. In the measurement, ATP-Uv test (available from Sigma Co., Ltd.) was used as ATP and lactate-UV test (available from Boeringer Mannheim Yamanouchi Co., Ltd.) was used as lactate. The detection of ADP and AMP was performed according to the method of Bergmeyer (Klin. Chem. Klin. Biochem., 1975, 13, p. 507). The energy charge (hereinafter referred to as "E.C.") which served as an indication of the degree of energy sufficiency due to high energy phosphoric acid of adenine nucleotide was calculated from the following relation according to the method of Atkinson (J. Biol. Chem., 1967, 242, p. 3329):
E.C.=(ATP+1/2ADP)/(ATP+ADP+AMP)
In the test, the compound to be tested was suspended in a 0.5% aqueous solution of methyl cellulose and was administered, through an oral route, to the animals to be tested 30 minutes before the ligation of the both common carotid arteries.

[4] = system: Choline acetyltransferase (ChAT); assay: Activity of Choline acetyltransferase (ChAT) in the striatum after cerebral ischemia; format: in vivo, male SHR's (rat)
Experimental: as §1
After completion of the learning test, the rat was sacrificed by decapitation and the activity of ChAT which had been believed to be involved in the memory function of animals was determined. The brain tissues were homogenized in 0.05% Triton X-100 containing-phosphate buffer solution (pH 7.4) and the resulting supernatant was used as a sample for determining the ChAT activity. The activity of ChAT was determined according to the method of Fonnum (J. Neurochem., 1975,24, p. 407).

[5] = Trial Passive Avoidance Training after cerebral ischemia; format: in vivo, male SHR's (rat); settings: for Reaction Latency: cut-off 300 s, **: P < 0.01 vs. Pathema Control (146.7 ± 30.42)
Experimental: as §1
As a testing apparatus, there was used a training box comprising a bright room whose floor was formed from grid, a dark room capable of applying footshock through the floor made of grid and a port opening equipped with a guillotine door disposed at the boundary of these rooms through which the animal could freely move between these two rooms. First, as an acquired trial, the rat was put in the bright room for 30 seconds while the guillotine door was closed, then the guillotine door was opened and the time required for the rat to enter into the dark room through the guillotine door was determined. […] After 24 hours, the rat was again put in the bright room, 30 seconds thereafter the guillotine door was opened and the time required for the animal to confirm the entrance and to enter into the dark room (the reaction latency) was determined. […]

COc1ccc(OCCCN(C)CCOc2ccc3c(c2)OCO3)c(C2Sc3ccccc3N(C)C2=O)c1 (single isomer, unassigned; (+)) [Compound A, (+)-3,4-dihydro-2-(5-methoxy-2-(3-(N-methyl-N-[2-[(3,4]propoxy]phenyl]-4-methyl-3-oxo-2H-1,4-benzothiazine fumarate]
Swimming Time, 3rd Session ([1]; 10 mg/kg oral): 40.9 ± 11.82 s | Swimming Time, 2nd Session ([1]; 10 mg/kg oral): 61.4 ± 15.06 s | Swimming Time, 1st Session ([1]; 10 mg/kg oral): 105.8 ± 16.50 s | Swimming Time, 3rd Session ([1]; 30 mg/kg oral): 34.5 ± 3.60 s | Swimming Time, 2nd Session ([1]; 30 mg/kg oral): 59.6 ± 9.60 s | Swimming Time, 1st Session ([1]; 30 mg/kg oral): 97.2 ± 18.85 s | time required to reach the base (in words) ([1]; vs. pathema control group): significantly shorter | LD50 (Acute toxicity, oral): 293 mg/kg | effect on survival time under low oxygen supply (in words) [2]: significant effect of extending survival time | Survival Time ([2]; 60 min before N2, average ± standard error, **: P < 0.01 vs. Control (25.8 ± 0.61)): 35.7 ± 1.28 s | Hippocampus E.C. (energy charge) ([3]; 10 mg/kg oral): 0.706 ± 0.025 | Cerebral Cortex E.C. (energy charge) ([3]; 10 mg/kg oral): 0.705 ± 0.0237 | Striatum E.C. (energy charge) ([3]; 10 mg/kg oral): 0.703 ± 0.025 | reduction in the E.C. due to the ischemia (in words) ([3]; 10 mg/kg oral, cerebrum cortex and hippocampus): significantly improved | changes in the ATP and the lactate due to the ischemia (in words) ([3]; 25 mg/kg oral): significantly inhibited | effect on the ratio lactate/pyruvate (in words) ([3]; 25 mg/kg oral): substantially improved | ATP ([3]; 25 mg/kg oral, 30 min before 3.5 h ligation, average ± standard error, **: P < 0.01 vs. Pathema Control (10.0 ± 1.03)): 16.9 ± 0.87 n mole/mg Protein | Lactate/Pyruvate ([3]; 25 mg/kg oral, 30 min before 3.5 h ligation, average ± standard error, **: P < 0.01 vs. Pathema Control (40.3 ± 6.78)): 19.1 ± 2.71 | Lactate ([3]; 25 mg/kg oral, 30 min before 3.5 h ligation, average ± standard error, **: P < 0.01 vs. Pathema Control (128.6 ± 15.84)): 62.3 ± 10.20 n mole/mg Protein | Hippocampus E.C. (energy charge) ([3]; 30 mg/kg oral): 0.762 ± 0.022 | Cerebral Cortex E.C. (energy charge) ([3]; 30 mg/kg oral): 0.764 ± 0.0078 | Striatum E.C. (energy charge) ([3]; 30 mg/kg oral): 0.768 ± 0.0063 | reduction in the E.C. due to the ischemia (in words) ([3]; 30 mg/kg oral, cerebral cortex, hippocampus and striatum): completely inhibited | ChAT activity in the striatum ([4]; 10 mg/kg oral, *: P < 0.05 vs. Pathema Control (3.43 ± 0.097)): 3.84 ± 0.102 n mol/mg Protein | ChAT activity in the striatum ([4]; 30 mg/kg oral, **: P < 0.01 vs. Pathema Control (3.43 ± 0.097)): 3.94 ± 0.201 n mol/mg Protein | lowering of the activity of ChAT in the striatum due to the cerebral ischemia (in words) ([4]; rat, in vivo): inhibited | Reaction Latency ([5]; 10 mg/kg oral): 271.1 ± 19.21 s | Reaction Latency ([5]; 30 mg/kg oral): 280.8 ± 19.25 s | average reaction latency (in words) ([5]; vs. pathema control group): significantly longer
